Laboratory results as given in the supplement of paper PMC11061612.

Key:
Lapatinib = compound: CS(=O)(=O)CCNCc1ccc(-c2ccc3ncnc(Nc4ccc(OCc5cccc(F)c5)c(Cl)c4)c3c2)o1 [Lapatinib]; details: max 10 µM
Method in brief: (§1)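 Cancer cell lines in 1536-well plates (7.5 μl DMEM/F12 or RPMI, 10% FBS) were held 24 hours at 37°C and 5% CO2 and then dosed for 72 hours at a final DMSO of typically 0.2%. Viability was taken from CellTiter-Glo 2.0 luminescence, scaled between blank-well and DMSO-well means. Curves were fitted as two-parameter logistic models with a non-linear mixed effects model, from which the single-agent IC50 was taken.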

AZD8186 = compound: C[C@@H](Nc1cc(F)cc(F)c1)c1cc(C(=O)N(C)C)cc2c(=O)cc(N3CCOCC3)oc12 [AZD8186]; details: max 3 µM
Method in brief: as §1

AZD4320 = compound: CN(CC[C@H](CSC1=CC=CC=C1)NC2=C(C=C(C=C2)S(=O)(=O)NC(=O)C3=CC=C(C=C3)N4CCC(CC4)[C@H](C5=CC=CC=C5C6=CC=C(C=C6)Cl)O)S(=O)(=O)C(F)(F)F)CCO [AZD4320]; details: max 1 µM
Method in brief: as §1

Olaparib = compound: O=C(c1cc(Cc2n[nH]c(=O)c3ccccc23)ccc1F)N1CCN(C(=O)C2CC2)CC1 [Olaparib]; details: max 10 µM
Method in brief: as §1

SN-38 = compound: CCc1c2c(nc3ccc(O)cc13)-c1cc3c(c(=O)n1C2)COC(=O)[C@]3(O)CC [SN-38]; details: max 0.3 µM
Method in brief: as §1

SG3199 = compound: CC1=CN2[C@@H](C1)C=NC3=CC(=C(C=C3C2=O)OC)OCCCCCOC4=C(C=C5C(=C4)N=C[C@@H]6CC(=CN6C5=O)C)OC [SG3199]; details: max 0.001 µM
Method in brief: as §1

Taselisib = compound: Cc1nc(-c2cn3c(n2)-c2ccc(-c4cnn(C(C)(C)C(N)=O)c4)cc2OCC3)n(C(C)C)n1 [Taselisib]; details: max 10 µM
Method in brief: as §1

Trametinib = compound: CC(=O)Nc1cccc(-n2c(=O)n(C3CC3)c(=O)c3c(Nc4ccc(I)cc4F)n(C)c(=O)c(C)c32)c1 [Trametinib]; details: max 1 µM
Method in brief: as §1

Capivasertib = compound: C1CN(CCC1(C(=O)N[C@@H](CCO)C2=CC=C(C=C2)Cl)N)C3=NC=NC4=C3C=CN4 [Capivasertib]; details: max 10 µM
Method in brief: as §1

Savolitinib = compound: C[C@@H](c1ccc2nccn2c1)n1nnc2ncc(-c3cnn(C)c3)nc21 [Savolitinib]; details: max 1 µM
Method in brief: as §1

Gefitinib = compound: COc1cc2ncnc(Nc3ccc(F)c(Cl)c3)c2cc1OCCCN1CCOCC1 [Gefitinib]; details: max 10 µM
Method in brief: as §1

Selumetinib = compound: Cn1cnc2c(F)c(Nc3ccc(Br)cc3Cl)c(C(=O)NOCCO)cc21 [Selumetinib]; details: max 10 µM
Method in brief: as §1

AZD0156 = compound: CN(C)CCCOc1ccc(-c2ccc3ncc4c(c3c2)n(C2CCOCC2)c(=O)n4C)cn1 [AZD0156]; details: max 3 µM
Method in brief: as §1

Doxorubicin = compound: COc1cccc2c1C(=O)c1c(O)c3c(c(O)c1C2=O)C[C@@](O)(C(=O)CO)C[C@@H]3O[C@H]1C[C@H](N)[C@H](O)[C@H](C)O1 [Doxorubicin]; details: max 1 µM
Method in brief: as §1

Dasatinib = compound: CC1=C(C(=CC=C1)Cl)NC(=O)C2=CN=C(S2)NC3=CC(=NC(=N3)C)N4CCN(CC4)CCO [Dasatinib]; details: max 2 µM
Method in brief: as §1

AZD1390 = compound: CC(C)n1c(=O)n(C)c2cnc3cc(F)c(-c4ccc(OCCCN5CCCCC5)nc4)cc3c21 [AZD1390]; details: max 0.3 µM
Method in brief: as §1

Palbociclib = compound: CC(=O)c1c(C)c2cnc(Nc3ccc(N4CCNCC4)cn3)nc2n(C2CCCC2)c1=O [Palbociclib]; details: max 10 µM
Method in brief: as §1

Prexasertib = compound: COc1cccc(OCCCN)c1-c1cc(Nc2cnc(C#N)cn2)n[nH]1 [Prexasertib]; details: max 1 µM
Method in brief: as §1

Crizotinib = compound: C[C@@H](Oc1cc(-c2cnn(C3CCNCC3)c2)cnc1N)c1c(Cl)ccc(F)c1Cl [Crizotinib]; details: max 10 µM
Method in brief: as §1

Venetoclax = compound: CC1(C)CCC(CN2CCN(c3ccc(C(=O)NS(=O)(=O)c4ccc(NCC5CCOCC5)c([N+](=O)[O-])c4)c(Oc4cnc5[nH]ccc5c4)c3)CC2)=C(c2ccc(Cl)cc2)C1 [Venetoclax]; details: max 1 µM
Method in brief: as §1

AZD2811 = compound: CCN(CCO)CCCOc1ccc2c(Nc3cc(CC(=O)Nc4cccc(F)c4)[nH]n3)ncnc2c1 [AZD2811]; details: max 1 µM
Method in brief: as §1

AZD6738 = compound: C[C@@H]1COCCN1C2=NC(=NC(=C2)C3(CC3)[S@](=N)(=O)C)C4=C5C=CNC5=NC=C4 [AZD6738]; details: max 10 µM
Method in brief: as §1

AZD5991 = compound: Cc1c2c(nn1C)CSCc1cc(n(C)n1)CSc1cc(c3ccccc3c1)OCCCc1c(C(=O)O)n(C)c3c-2c(Cl)ccc13 [AZD5991]; details: max 1 µM
Method in brief: as §1

AZD1775 = compound: C=CCn1c(=O)c2cnc(Nc3ccc(N4CCN(C)CC4)cc3)nc2n1-c1cccc(C(C)(C)O)n1 [AZD1775]; details: max 3 µM
Method in brief: as §1

AZD5153 = compound: COc1nnc2ccc(N3CCC(c4ccc(OCCN5CCN(C)C(=O)[C@H]5C)cc4)CC3)nn12 [AZD5153]; details: max 1 µM
Method in brief: as §1

Alisertib = compound: COc1cc(Nc2ncc3c(n2)-c2ccc(Cl)cc2C(c2c(F)cccc2OC)=NC3)ccc1C(=O)O [Alisertib]; details: max 10 µM
Method in brief: as §1

AZD7648 = compound: Cc1cc2ncnn2cc1Nc1ncc2c(n1)n(C1CCOCC1)c(=O)n2C [AZD7648]; details: max 10 µM
Method in brief: as §1

MK-2206 = compound: NC1(c2ccc(-c3nc4ccn5c(=O)[nH]nc5c4cc3-c3ccccc3)cc2)CCC1 [MK-2206]; details: max 10 µM
Method in brief: as §1

Cell Line | IC50, cell viability 72 h (Lapatinib) [µM] | IC50, cell viability 72 h (AZD8186) [µM] | IC50, cell viability 72 h (AZD4320) [µM] | IC50, cell viability 72 h (Olaparib) [µM] | IC50, cell viability 72 h (SN-38) [µM] | IC50, cell viability 72 h (SG3199) [µM] | IC50, cell viability 72 h (Taselisib) [µM] | IC50, cell viability 72 h (Trametinib) [µM] | IC50, cell viability 72 h (Capivasertib) [µM] | IC50, cell viability 72 h (Savolitinib) [µM] | IC50, cell viability 72 h (Gefitinib) [µM] | IC50, cell viability 72 h (Selumetinib) [µM] | IC50, cell viability 72 h (AZD0156) [µM] | IC50, cell viability 72 h (Doxorubicin) [µM] | IC50, cell viability 72 h (Dasatinib) [µM] | IC50, cell viability 72 h (AZD1390) [µM] | IC50, cell viability 72 h (Palbociclib) [µM] | IC50, cell viability 72 h (Prexasertib) [µM] | IC50, cell viability 72 h (Crizotinib) [µM] | IC50, cell viability 72 h (Venetoclax) [µM] | IC50, cell viability 72 h (AZD2811) [µM] | IC50, cell viability 72 h (AZD6738) [µM] | IC50, cell viability 72 h (AZD5991) [µM] | IC50, cell viability 72 h (AZD1775) [µM] | IC50, cell viability 72 h (AZD5153) [µM] | IC50, cell viability 72 h (Alisertib) [µM] | IC50, cell viability 72 h (AZD7648) [µM] | IC50, cell viability 72 h (MK-2206) [µM]
OVTOKO (Ovarian Carcinoma) | > 10 | 2.65 | > 1 | > 10 | > 0.3 | > 0.001 | 0.693 | > 1 | 8.52 | > 1 | > 10 | > 10 | > 3 | > 1 | 0.0564 | > 0.3 | > 10 | 0.714 | > 10 | > 1 | > 1 | > 10 | > 1 | 2.1 | 0.948 | > 10 | > 10 | –
RERF-LC-KJ (Lung Adenocarcinoma) | > 10 | > 3 | > 1 | > 10 | 0.24 | > 0.001 | 6.5 | > 1 | > 10 | > 1 | > 10 | > 10 | > 3 | > 1 | > 2 | > 0.3 | > 10 | > 1 | > 10 | > 1 | > 1 | > 10 | > 1 | > 3 | 0.0837 | > 10 | > 10 | –
RL95-2 (Endometrial Carcinoma) | > 10 | > 3 | > 1 | > 10 | > 0.3 | > 0.001 | > 10 | 0.54 | 1.4 | > 1 | > 10 | 9.13 | > 3 | > 1 | > 2 | > 0.3 | > 10 | 0.0938 | > 10 | > 1 | 0.305 | 8.39 | 0.266 | 0.49 | > 1 | 2.14 | > 10 | –
RPMI-8866 (Chronic Myelogenous Leukemia) | > 10 | > 3 | 0.362 | > 10 | 0.00448 | > 0.001 | 2.45 | > 1 | > 10 | > 1 | > 10 | > 10 | > 3 | 0.125 | 1.13 | > 0.3 | 2.71 | 0.01 | 5.73 | > 1 | 0.449 | 0.926 | > 1 | 0.349 | 0.0476 | 0.153 | > 10 | –
RT4 (Bladder Carcinoma) | > 10 | > 3 | > 1 | > 10 | 0.0434 | > 0.001 | > 10 | 0.328 | > 10 | > 1 | > 10 | > 10 | > 3 | 0.642 | > 2 | > 0.3 | > 10 | > 1 | > 10 | > 1 | > 1 | > 10 | > 1 | 2.26 | 0.84 | 2.4 | > 10 | –
SJRH30 (Rhabdomyosarcoma) | > 10 | > 3 | > 1 | > 10 | > 0.3 | > 0.001 | 1.47 | > 1 | 4.7 | > 1 | > 10 | > 10 | > 3 | 0.967 | > 2 | > 0.3 | > 10 | 0.0159 | 5.22 | > 1 | > 1 | 3.8 | 0.98 | 0.317 | > 1 | 9.41 | > 10 | > 10
SNU-175 (Colorectal Carcinoma) | > 10 | > 3 | > 1 | > 10 | 0.208 | > 0.001 | > 10 | 0.547 | > 10 | > 1 | 9.29 | > 10 | > 3 | 0.502 | > 2 | > 0.3 | 8.34 | 0.761 | 4.58 | > 1 | 0.0656 | > 10 | > 1 | 0.365 | 0.236 | 0.377 | > 10 | –
